Data: US9944678B2, “Immunomodulators” (BRISTOL-MYERS SQUIBB COMPANY, priority 2014, dated 2018)
Starred links: 1 amine or outer side, 2 acyl side, 3 side chain; linkers in the order of their positions; H or OH if unused. Positions of bridges follow the written chain, without caps; N, C: chain ends. Non-standard residues stand in square brackets, D forms with d. Residues, ends and D or L forms follow the SMILES beside them. ξ: configuration not given here. X2 = CC[C@H]1C[C@@]1(N[*:1])C(=O)[*:2]; X4 = C[C@H]1C[C@@]1(N[*:1])C(=O)[*:2]; Bta = N[C@@H](Cc1csc2ccccc12)C(=O)O; X3 = C[C@H]1CC1(N[*:1])C(=O)[*:2]; Hyp = O=C(O)[C@@H]1C[C@@H](O)CN1; Aic = NC1(C(=O)O)Cc2ccccc2C1; NMeNle = CCCC[C@H](NC)C(=O)O; NMeA = CN[C@@H](C)C(=O)O; Ac5c = NC1(C(=O)O)CCCC1; Dab = NCC[C@H](N)C(=O)O; Dap = NC[C@H](N)C(=O)O; Ac3c = NC1(C(=O)O)CC1; Aib = CC(C)(N)C(=O)O; ξC = NC(CS)C(=O)O; Sar = CNCC(=O)O

target: T1, PD-1-Ig binding to PD-L1-TVMV-His (PD-L1-His) (Homo sapiens, UniProt Q9NZQ7); experiment: PD-1/PD-L1 Homogenous Time-Resolved Fluorescence (HTRF) binding assay; settings: PD-1-Ig/PD-L1-His binding; values given as range classes
T1 construct: hPDL1(19-239)-TVMV-His; TVMV protease cleavage site (C); made in house; host or cells: HEK293T cells
T1 sequence (Q9NZQ7 with tags, fused parts or gaps): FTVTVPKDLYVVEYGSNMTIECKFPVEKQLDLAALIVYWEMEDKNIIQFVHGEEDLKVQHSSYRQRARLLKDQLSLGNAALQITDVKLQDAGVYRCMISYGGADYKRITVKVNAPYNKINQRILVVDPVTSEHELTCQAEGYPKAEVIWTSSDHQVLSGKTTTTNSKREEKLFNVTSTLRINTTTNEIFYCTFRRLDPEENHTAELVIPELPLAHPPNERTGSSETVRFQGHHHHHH
Description: The ability of the macrocyclic peptides of the present disclosure to bind to PD-L1 was investigated using a PD-1/PD-L1 Homogenous Time-Resolved Fluorescence (HTRF) binding assay.
Homogenous Time-Resolved Fluorescence (HTRF) Assays of Binding of Soluble PD-1 to Soluble PD-L1. Soluble PD-1 and soluble PD-L1 refers to proteins with carboxyl-end truncations that remove the transmembrane-spanning regions and are fused to heterologous sequences, specifically the Fc portion of the human immunoglobuling G sequence (Ig) or the hexahistidine epitope tag (His). All binding studies were performed in an HTRF assay buffer consisting of dPBS supplemented with 0.1% (w/v) bovine serum albumin and 0.05% (v/v) Tween-20. For the PD-1-Ig/PD-L1-His binding assay, inhibitors were pre-incubated with PD-L1-His (10 nM final) for 15 m in 4 μl of assay buffer, followed by addition of PD-1-Ig (20 nM final) in 1 μl of assay buffer and further incubation for 15 m. PD-L1 fusion proteins from either human, cynomologous macaques, mouse, or other species were used. HTRF detection was achieved using europium crypate-labeled anti-Ig monoclonal antibody (1 nM final) and allophycocyanin (APC) labeled anti-His monoclonal antibody (20 nM final). Antibodies were diluted in HTRF detection buffer and 5 μl was dispensed on top of binding reaction. The reaction was allowed to equilibrate for 30 minutes and signal (665 nm/620 nm ratio) was obtained using an EnVision fluorometer. Additional binding assays were established between PD-1-Ig/PD-L2-His (20 and 5 nM, respectively), CD80-His/PD-L1-Ig (100 and 10 nM, respectively) and CD80-His/CTLA4-Ig (10 and 5 nM, respectively). Binding/competition studies between biotinylated Compound No. 71 and human PD-L1-His were performed as follows. Macrocyclic peptide inhibitors were pre-incubated with PD-L1-His (10 nM final) for 60 minutes in 4 μl of assay buffer followed by addition of biotinylated Compound No. 71 (0.5 nM final) in 1 μl of assay buffer. Binding was allowed to equilibrate for 30 minutes followed by addition of europium crypated labeled Streptavidin (2.5 pM final) and APC-labeled anti-His (20 nM final) in 5 μl of HTRF buffer. The reaction was allowed to equilibrate for 30 m and signal (665 nm/620 nm ratio) was obtained using an EnVision fluorometer.
Recombinant Proteins. Carboxyl-truncated human PD-1 (amino acids 25-167) with a C-terminal human Ig epitope tag [hPD-1 (25-167)-3S-IG] and human PD-L1 (amino acids 18-239) with a C-terminal His epitope tag [hPD-L1(19-239)-tobacco vein mottling virus protease cleavage site (TVMV)-His] were expressed in HEK293T cells and purified sequentially by recombinant Protein A affinity chromatography and size exclusion chromatography. Human PD-L2-His (Sino Biologicals), CD80-His (Sino Biologicals), CTLA4-Ig (RnD Systems) were all obtained through commercial sources.
Ranges are as follows: A=0.10-10 μM; B=0.01-0.099 μM; C=0.004-0.0099 μM.

IC50 [nM]	SMILES
100 to 10000	CCCC[C@H]1C(=O)N(C)[C@@H](CCCC)C(=O)N[C@@H](CCCNC(=N)N)C(=O)NC(C(=O)NCC(N)=O)CSCC(=O)N[C@@H](Cc2ccc(O)cc2)C(=O)N(C)[C@@H](C)C(=O)N[C@@H](CC(N)=O)C(=O)N[C@]2(C[C@@H]2C)C(=O)N[C@@H](Cc2cnc[nH]2)C(=O)N[C@@H](CC(C)C)C(=O)N2CCC[C@H]2C(=O)N[C@@H](Cc2c[nH]c3ccccc23)C(=O)N[C@@H](CO)C(=O)N[C@@H](Cc2csc3ccccc23)C(=O)N1C (stereo partly shown) [Example 10003] ({CH2CO}-Y[NMeA]N[X4]HLPWS[Bta][NMeNle][NMeNle]R[ξC]G-NH2; thioether N-14)
4 to 9.9	CCCC[C@H]1C(=O)N(C)[C@@H](CCCC)C(=O)N[C@@H](CCCNC(=N)N)C(=O)NC(C(=O)NCC(N)=O)CSCC(=O)N[C@@H](Cc2ccc(O)cc2)C(=O)NC2(CC2)C(=O)N[C@@H](CC(N)=O)C(=O)N2CCC[C@H]2C(=O)N[C@@H](Cc2c[nH]cn2)C(=O)N[C@@H](CC(C)C)C(=O)N2C[C@H](O)C[C@H]2C(=O)N[C@@H](Cc2c[nH]c3ccccc23)C(=O)N[C@@H](CO)C(=O)N[C@@H](Cc2csc3ccccc23)C(=O)N1C (stereo partly shown) [Example 9001] ({CH2CO}-Y[Ac3c]NPHL[Hyp]WS[Bta][NMeNle][NMeNle]R[ξC]G-NH2; thioether N-14)
10 to 99	CCCC[C@H]1C(=O)N(C)[C@@H](CCCC)C(=O)N[C@@H](CC(C)C)C(=O)N[C@H](C(=O)NCC(N)=O)CSCC(=O)N[C@@H](Cc2ccc(O)cc2)C(=O)N(C)[C@@H](C)C(=O)N[C@@H](CC(N)=O)C(=O)N2CCC[C@H]2C(=O)NC2(CC2)C(=O)N[C@@H](CC(C)C)C(=O)N2C[C@H](O)C[C@H]2C(=O)N[C@@H](Cc2c[nH]c3ccccc23)C(=O)N[C@@H](CCN)C(=O)N[C@@H](Cc2c[nH]c3ccccc23)C(=O)N1C [Example 9012] ({CH2CO}-Y[NMeA]NP[Ac3c]L[Hyp]W[Dab]W[NMeNle][NMeNle]LCG-NH2; thioether N-14)
10 to 99	CCCC[C@H]1C(=O)N(C)[C@@H](CCCC)C(=O)NC2(Cc3ccccc3C2)C(=O)N[C@H](C(=O)NCC(N)=O)CSCC(=O)N[C@@H](Cc2ccc(O)cc2)C(=O)N(C)[C@@H](C)C(=O)N[C@@H](CC(N)=O)C(=O)N2CCC[C@H]2C(=O)N[C@@H](CN)C(=O)N[C@@H](CC(C)C)C(=O)N2C[C@H](O)C[C@H]2C(=O)N[C@@H](Cc2c[nH]c3ccccc23)C(=O)N[C@@H](CCN)C(=O)N[C@@H](Cc2c[nH]c3ccccc23)C(=O)N1C [Example 9016] ({CH2CO}-Y[NMeA]NP[Dap]L[Hyp]W[Dab]W[NMeNle][NMeNle][Aic]CG-NH2; thioether N-14)
100 to 10000	CCCC[C@H]1C(=O)N(C)[C@@H](CCCC)C(=O)N[C@@H](CCCNC(=N)N)C(=O)N[C@H](C(=O)NCC(N)=O)CSCC(=O)N[C@@H](Cc2ccccc2)C(=O)N(C)[C@@H](C)C(=O)N[C@@H](CC(N)=O)C(=O)N2CCC[C@H]2C(=O)N[C@@H](Cc2cnc[nH]2)C(=O)N[C@@H](CC(C)C)C(=O)N(C)CC(=O)N[C@@H](Cc2c[nH]c3ccccc23)C(=O)NC(C)(C)C(=O)N[C@@H](Cc2c[nH]c3ccccc23)C(=O)N1C [Example 1003] ({CH2CO}-F[NMeA]NPHL[Sar]W[Aib]W[NMeNle][NMeNle]RCG-NH2; thioether N-14)
100 to 10000	CCCC[C@H]1C(=O)N(C)[C@@H](CCCC)C(=O)N[C@@H](CC(C)C)C(=O)N[C@H](C(=O)NCC(N)=O)CSCC(=O)N[C@@H](Cc2ccc(O)cc2)C(=O)N(C)[C@@H](C)C(=O)N[C@@H](CC(N)=O)C(=O)N2CCC[C@H]2C(=O)N[C@@H](CN)C(=O)N[C@@H](CC(C)C)C(=O)N2C[C@H](O)C[C@H]2C(=O)N[C@@H](Cc2c[nH]c3ccccc23)C(=O)NC(C)(C)C(=O)N[C@@H](Cc2c[nH]c3ccccc23)C(=O)N1C [Example 9007] ({CH2CO}-Y[NMeA]NP[Dap]L[Hyp]W[Aib]W[NMeNle][NMeNle]LCG-NH2; thioether N-14)
10 to 99	CCCC[C@H]1C(=O)N(C)[C@@H](CCCC)C(=O)N[C@@H](CC(C)C)C(=O)N[C@H](C(=O)NCC(N)=O)CSCC(=O)N[C@@H](Cc2ccc(O)cc2)C(=O)N(C)[C@@H](C)C(=O)N[C@@H](CC(N)=O)C(=O)N2CCC[C@H]2C(=O)NC2(CCCC2)C(=O)N[C@@H](CC(C)C)C(=O)N2C[C@H](O)C[C@H]2C(=O)N[C@@H](Cc2c[nH]c3ccccc23)C(=O)N[C@@H](CCN)C(=O)N[C@@H](Cc2c[nH]c3ccccc23)C(=O)N1C [Example 9017] ({CH2CO}-Y[NMeA]NP[Ac5c]L[Hyp]W[Dab]W[NMeNle][NMeNle]LCG-NH2; thioether N-14)
100 to 10000	CCCC[C@H]1C(=O)N(C)[C@@H](CCCC)C(=O)N[C@@H](CCCNC(=N)N)C(=O)NC(C(=O)NCC(N)=O)CSCC(=O)N[C@@H](Cc2ccc(O)cc2)C(=O)N(C)[C@@H](C)C(=O)N[C@@H](CC(N)=O)C(=O)N2C[C@H](O)C[C@H]2C(=O)N[C@@H](Cc2cnc[nH]2)C(=O)N[C@@H](CC(C)C)C(=O)NC2(C[C@@H]2C)C(=O)N[C@@H](Cc2c[nH]c3ccccc23)C(=O)N[C@@H](CO)C(=O)N[C@@H](Cc2csc3ccccc23)C(=O)N1C (stereo partly shown) [Example 10006] ({CH2CO}-Y[NMeA]N[Hyp]HL[X3]WS[Bta][NMeNle][NMeNle]R[ξC]G-NH2; thioether N-14)
10 to 99	CCCC[C@H]1C(=O)N(C)[C@@H](CCCC)C(=O)N[C@@H](CCCNC(=N)N)C(=O)NC(C(=O)NCC(N)=O)CSCC(=O)N[C@@H](Cc2ccc(O)cc2)C(=O)N(C)[C@@H](C)C(=O)N[C@@H](CC(N)=O)C(=O)N[C@]2(C[C@@H]2CC)C(=O)N[C@@H](Cc2cnc[nH]2)C(=O)N[C@@H](CC(C)C)C(=O)N2C[C@H](O)C[C@H]2C(=O)N[C@@H](Cc2c[nH]c3ccccc23)C(=O)N[C@@H](CO)C(=O)N[C@@H](Cc2csc3ccccc23)C(=O)N1C (stereo partly shown) [Example 10008] ({CH2CO}-Y[NMeA]N[X2]HL[Hyp]WS[Bta][NMeNle][NMeNle]R[ξC]G-NH2; thioether N-14)
100 to 10000	CCCC[C@H]1C(=O)N(C)[C@@H](CCCC)C(=O)N[C@@H](CCCNC(=N)N)C(=O)NC(C(=O)NCC(N)=O)CSCC(=O)N[C@@H](Cc2ccc(O)cc2)C(=O)N(C)[C@@H](C)C(=O)N[C@@H](CC(N)=O)C(=O)N[C@]2(C[C@@H]2CC)C(=O)N[C@@H](Cc2cnc[nH]2)C(=O)N[C@@H](CC(C)C)C(=O)N2CCC[C@H]2C(=O)N[C@@H](Cc2c[nH]c3ccccc23)C(=O)N[C@@H](CO)C(=O)N[C@@H](Cc2c[nH]c3ccccc23)C(=O)N1C (stereo partly shown) [Example 10010] ({CH2CO}-Y[NMeA]N[X2]HLPWSW[NMeNle][NMeNle]R[ξC]G-NH2; thioether N-14)
100 to 10000	CCCC[C@H]1C(=O)N(C)[C@@H](CCCC)C(=O)N[C@@H](CCCNC(=N)N)C(=O)N[C@H](C(=O)NCC(N)=O)CSCC(=O)N[C@@H](Cc2ccccc2)C(=O)N(C)[C@@H](C)C(=O)N[C@@H](CC(N)=O)C(=O)N2CCC[C@H]2C(=O)N[C@@H](Cc2cnc[nH]2)C(=O)N[C@@H](CC(C)C)C(=O)NC2(CCCC2)C(=O)N[C@@H](Cc2c[nH]c3ccccc23)C(=O)N[C@@H](CO)C(=O)N[C@@H](Cc2c[nH]c3ccccc23)C(=O)N1C [Example 1001]
100 to 10000	CCCC[C@H]1C(=O)N(C)[C@@H](CCCC)C(=O)N[C@@H](CC(C)C)C(=O)N[C@H](C(=O)NCC(N)=O)CSCC(=O)N[C@@H](Cc2ccc(O)cc2)C(=O)N(C)[C@@H](C)C(=O)NC(C)(C)C(=O)N2CCC[C@H]2C(=O)N[C@@H](CN)C(=O)N[C@@H](CC(C)C)C(=O)N2C[C@H](O)C[C@H]2C(=O)N[C@@H](Cc2c[nH]c3ccccc23)C(=O)N[C@@H](CCN)C(=O)N[C@@H](Cc2c[nH]c3ccccc23)C(=O)N1C [Example 9013] ({CH2CO}-Y[NMeA][Aib]P[Dap]L[Hyp]W[Dab]W[NMeNle][NMeNle]LCG-NH2; thioether N-14)
100 to 10000	CCCC[C@H]1C(=O)N(C)[C@@H](CCCC)C(=O)NC(C)(C)C(=O)N[C@H](C(=O)NCC(N)=O)CSCC(=O)N[C@@H](Cc2ccc(O)cc2)C(=O)N(C)[C@@H](C)C(=O)N[C@@H](CC(N)=O)C(=O)N2CCC[C@H]2C(=O)N[C@@H](CN)C(=O)N[C@@H](CC(C)C)C(=O)N2C[C@H](O)C[C@H]2C(=O)N[C@@H](Cc2c[nH]c3ccccc23)C(=O)N[C@@H](CCN)C(=O)N[C@@H](Cc2c[nH]c3ccccc23)C(=O)N1C [Example 9005] ({CH2CO}-Y[NMeA]NP[Dap]L[Hyp]W[Dab]W[NMeNle][NMeNle][Aib]CG-NH2; thioether N-14)
